Assay results: article PMC10229121, “An acetylation-mediated chromatin switch governs H3K4 methylation read-write capability” (eLife, 2023)

Tested on: histone H3.1 modifications in HEK-293 cells
Test: Middle-down mass spectrometry of histone H3.1 from HEK-293 cells ± KDAC inhibition (H3K9 methylation, {K9ac, K14ac, K18ac} proteoforms, H3K4 methylation)
Format: cell-based
Conditions: for 3ac including {K9ac, K14ac, K18ac} / 4ac including {K9ac, K14ac, K18ac} / 5ac including {K9ac, K14ac, K18ac}: HEK-293, H3.1 butyrate treated; for H3K9me0 / H3K9me1 / H3K9me2 / H3K9me3: HEK-293, butyrate treated
Protocol: Figure 3. […] (A) Occupancy of H3K4 methyl states (me0-1-2-3) within each H3 acetyl state (0ac to 5ac) in asynchronous MCF-7 cells. (B) Occupancy of H3K4 methyl states within each H3 acetyl state after butyrate treatment (60 min). Asterisks represent p-values <0.05. […] Each spectrum is an average of MS2 spectra of the indicated H3 acetyl states after 60 min of butyrate treatment. K4 occupancy stoichiometry is directly correlated with H3 acetylation state and the targeted MS approach provides excellent signal-to-noise for confident quantitation. […] See Methods for further information on data acquisition and analysis. All data were collected in biological triplicate with error bars representing SEM. Figure 3—figure supplement 1. H3 acetylation states with sodium butyrate treatment. (A - B) Each acetyl state of acid-extracted H3 from 0ac to 5ac is represented as a percent of total H3 before/after 60 min treatment of asynchronous MCF-7 cells with 5 mM sodium butyrate. (C) Occupancy of H3K4 methyl states (me0-1-2-3) within each H3 acetyl state (0ac to 5ac) in asynchronous HEK-293 cells. (D) Occupancy of H3K4 methyl states within each H3 acetyl state after butyrate treatment (120 min) in asynchronous HEK-293 cells. (E) Percentage of (K9ac, K14ac, K18ac) proteoforms within 3ac to 5ac acetyl states of H3.1 ± butyrate treatment in HEK-293 cells. N=3 and error bars are SEM for all data. [drawing 3]
MCF-7 breast cancer cells (ATCC HTB-22) were grown in MEM (Gibco) supplemented with 10% fetal bovine serum (VWR), 100 I.U. penicillin, 100 µg/mL streptomycin (Corning), 0.01 mg/mL human recombinant insulin (Gibco), and 5 µg/mL plasmocin (Invivogen) at 37 °C and 5% CO2. HEK-293 (ATCC CRL-1573) was grown in DMEM (Gibco) supplemented with 10% fetal bovine serum (Corning), 100 I.U. penicillin, and 100 µg/mL streptomycin (Gibco) at 37 °C and 5% CO2. Both cell lines were authenticated via STR profiling and confirmed to be Mycoplasma negative.
For mass spectrometric (MS) analysis ± KDAC inhibition, cells were cultured in 150 mm dishes to ~80% confluence and treated with 5 mM sodium butyrate (or equivalent volume of water) in triplicate for 0, 10, 20, 30, 60, 120 min. […] Histones were acid extracted after nuclei isolation as described ([Holt et al., 2021]). Isolated histones were resuspended in 85 µL 5% acetonitrile, 0.2% trifluoroacetic acid (TFA), and resolved by offline high-performance liquid chromatography (HPLC) as described ([Holt et al., 2021]). […] After chromatographic separation and fraction collection, histone H3.1 was selected, diluted in 100 mM ammonium acetate (pH = 4), and digested with Glu-C protease (Roche) at 10:1 protein:enzyme for 1 hr at room temperature prior to mass spectrometric analysis.
The digested samples were diluted to 2 µg/µL. Online HPLC was performed on a U3000 RSLC nano Pro-flow system using a C3 column (Zorbax 300 SB-C3, 5 µm; Agilent). Samples were maintained at 4 °C and 1 µL injected for each analysis using a microliter pickup. […] The column eluant was introduced into an Orbitrap Fusion Lumos mass spectrometer (Thermo Fisher) by nano-electrospray ionization. A static spray voltage of 1900 V and an ion transfer tube temperature of 320 °C were set for the source.
A Fusion Lumos mass spectrometer was used to generate MS data. The 9th charge state of histone H3 was targeted for analysis. MS1 analysis was acquired in the orbitrap with a normal mass range and a 60 k resolution setting in positive ion mode. An Automatic Gain Control (AGC) target of 5.0E5 with a 200 ms maximum injection time, three microscans, and a scan range of 585–640 m/z was used to identify desired ions for fragmentation. MS2 acquisition was performed in both orbitrap and ion trap modes. Both modes used electron transfer dissociation (ETD), a reaction time of 18ms, and an injection time of 200 ms. […]

CCCC(=O)O [sodium butyrate]
3ac including {K9ac, K14ac, K18ac}: 1.6743 Percentage
4ac including {K9ac, K14ac, K18ac}: 16.6357 Percentage
5ac including {K9ac, K14ac, K18ac}: 100 Percentage
3ac including {K9ac, K14ac, K18ac} (column 1 of 3): 1.334 Percentage
4ac including {K9ac, K14ac, K18ac} (column 1 of 3): 17.3973 Percentage
5ac including {K9ac, K14ac, K18ac} (column 1 of 3): 100 Percentage
3ac including {K9ac, K14ac, K18ac} (column 2 of 3): 1.24 Percentage
4ac including {K9ac, K14ac, K18ac} (column 2 of 3): 17.858 Percentage
5ac including {K9ac, K14ac, K18ac} (column 2 of 3): 100 Percentage
H3K9me0 (0ac): 48.8895 Percentage
H3K9me1 (0ac): 7.899 Percentage
H3K9me2 (0ac): 29.443 Percentage
H3K9me3 (0ac): 13.7682 Percentage
H3K9me0 (0ac, column 1 of 3): 54.4348 Percentage
H3K9me1 (0ac, column 1 of 3): 4.2113 Percentage
H3K9me2 (0ac, column 1 of 3): 27.4814 Percentage
H3K9me3 (0ac, column 1 of 3): 13.8725 Percentage
H3K9me0 (0ac, column 2 of 3): 51.9841 Percentage
H3K9me1 (0ac, column 2 of 3): 5.137 Percentage
H3K9me2 (0ac, column 2 of 3): 26.9782 Percentage
H3K9me3 (0ac, column 2 of 3): 15.9004 Percentage
H3K9me0 (1ac): 27.5434 Percentage
H3K9me1 (1ac): 15.9623 Percentage
H3K9me2 (1ac): 38.0917 Percentage
H3K9me3 (1ac): 17.0037 Percentage
H3K9me0 (1ac, column 1 of 3): 28.711 Percentage
H3K9me1 (1ac, column 1 of 3): 14.4169 Percentage
H3K9me2 (1ac, column 1 of 3): 39.3301 Percentage
H3K9me3 (1ac, column 1 of 3): 15.8799 Percentage
H3K9me0 (1ac, column 2 of 3): 28.8744 Percentage
H3K9me1 (1ac, column 2 of 3): 14.4284 Percentage
H3K9me2 (1ac, column 2 of 3): 38.0038 Percentage
H3K9me3 (1ac, column 2 of 3): 16.6818 Percentage
H3K9me0 (2ac): 27.9258 Percentage
H3K9me1 (2ac): 21.3235 Percentage
H3K9me2 (2ac): 37.139 Percentage
H3K9me3 (2ac): 9.818 Percentage
H3K9me0 (2ac, column 1 of 3): 28.9582 Percentage
H3K9me1 (2ac, column 1 of 3): 21.0866 Percentage
H3K9me2 (2ac, column 1 of 3): 35.8684 Percentage
H3K9me3 (2ac, column 1 of 3): 10.0575 Percentage
H3K9me0 (2ac, column 2 of 3): 26.6449 Percentage
H3K9me1 (2ac, column 2 of 3): 22.0491 Percentage
H3K9me2 (2ac, column 2 of 3): 35.8906 Percentage
H3K9me3 (2ac, column 2 of 3): 10.993 Percentage
H3K9me0 (3ac): 21.6496 Percentage
H3K9me1 (3ac): 12.8486 Percentage
H3K9me2 (3ac): 25.9132 Percentage
H3K9me3 (3ac): 9.297 Percentage
H3K9me0 (3ac, column 1 of 3): 21.2886 Percentage
H3K9me1 (3ac, column 1 of 3): 12.9304 Percentage
H3K9me2 (3ac, column 1 of 3): 26.508 Percentage
H3K9me3 (3ac, column 1 of 3): 10.2618 Percentage
H3K9me0 (3ac, column 2 of 3): 21.713 Percentage
H3K9me1 (3ac, column 2 of 3): 11.1466 Percentage
H3K9me2 (3ac, column 2 of 3): 27.8034 Percentage
H3K9me3 (3ac, column 2 of 3): 10.4504 Percentage
H3K9me0 (4ac): 4.833 Percentage
H3K9me1 (4ac): 7.36 Percentage
H3K9me2 (4ac): 8.881 Percentage
H3K9me3 (4ac): 1.604 Percentage
H3K9me0 (4ac, column 1 of 3): 5.043 Percentage
H3K9me1 (4ac, column 1 of 3): 6.813 Percentage
H3K9me2 (4ac, column 1 of 3): 10.053 Percentage
H3K9me3 (4ac, column 1 of 3): 3.009 Percentage
H3K9me0 (4ac, column 2 of 3): 4.13 Percentage
H3K9me1 (4ac, column 2 of 3): 7.856 Percentage
H3K9me2 (4ac, column 2 of 3): 9.753 Percentage
H3K9me3 (4ac, column 2 of 3): 2.246 Percentage
H3K9me0 (5ac): 0 Percentage
H3K9me1 (5ac): 0 Percentage
H3K9me2 (5ac): 0 Percentage
H3K9me3 (5ac): 0 Percentage
H3K9me0 (5ac, column 1 of 3): 0 Percentage
H3K9me1 (5ac, column 1 of 3): 0 Percentage
H3K9me2 (5ac, column 1 of 3): 0 Percentage
H3K9me3 (5ac, column 1 of 3): 0 Percentage
H3K9me0 (5ac, column 2 of 3): 0 Percentage
H3K9me1 (5ac, column 2 of 3): 0 Percentage
H3K9me2 (5ac, column 2 of 3): 0 Percentage
H3K9me3 (5ac, column 2 of 3): 0 Percentage
H3K9me3 on hyperacetylated H3 proteoforms, in words (HEK-293, ± butyrate): H3K9me3 did not accumulate with hyperacetylated H3 proteoforms
{K9ac, K14ac, K18ac} in 5ac proteoforms, in words (HEK-293, ± butyrate): all penta-acetylated (5ac) H3 proteoforms consisted of acetylation at H3K9, K14, and K18 at minimum
